Here are results for 65 compounds from PubChem BioAssay AID2823 (Broad Institute, 2010).

Each structure is given as a SMILES string. pIC50: −log10 of the molar value. Active and inactive are the calls of the source. The rule behind the calls is not given here.

This test has as its target RanGTP-importin-beta complex (human Ran / KPNB1). Description: Ran–importin-beta interaction inhibitors, confirmation, biochemical, FRET, CFP/YFP, cell-free homogeneous (AID 2823). The conditions noted are these: CFP-Ran/YFP-importin-beta FRET ratio.
`CCn1c(=O)cc(N2CCCCC2)[nH]c1=O`: the IC50 is > 50 µM (inactive).
For `O=C(Nc1ccc(OC(F)(F)F)cc1)c1ccc2nc[nH]c2c1`, the IC50 was > 50 µM (inactive).
As to `N#C/C(=C/c1ccc(N2CCCCC2)o1)C(=O)NCCc1c[nH]c2ccccc12`, the pIC50 is 6.03.
`COCc1ccc(CN2CCCC(CO)(Cc3ccccc3C)C2)o1` (stereo not given): the IC50 was > 50 µM (inactive).
Regarding `COc1ccc(CCNc2oc(-c3ccco3)nc2C#N)cc1`, the IC50 was > 50 µM (inactive).
On the same count and under the same terms, for `Cc1ccc(/C=C2/C(=O)c3ccc(C(=O)O)cc3C2=O)o1` the value was > 50 µM (inactive); for `C=CCN1CCc2cccc3c2[C@H]1Cc1ccc(O)c(O)c1-3`, > 50 µM (inactive).
Turning to `COc1ccc(-c2c(C)c3ccc(O)cc3oc2=O)cc1`, the pIC50 is 4.44.
With `O=C(CN1C(=O)NC2(CCCC2)C1=O)Nc1nc2c(F)cc(F)cc2s1`, the IC50 was > 50 µM (inactive).
In the case of `COc1ccc(Br)cc1/C=C/C(=O)NC(=S)Nc1ccc(CN2CCOCC2)cc1`, the IC50 was > 50 µM (inactive).
`Cc1ccc(S(=O)(=O)NCCN(CCNS(=O)(=O)c2ccc(C)cc2)S(C)(=O)=O)cc1`: the IC50 is > 50 µM (inactive).
`CC1CCCCN1C(=O)Cn1c(=O)oc2cc(S(=O)(=O)N3CCCC3)ccc21` (stereo not given): the IC50 is > 50 µM (inactive).
For the compound `CCN(CC)Cc1c(O)c(Cl)cc2c3c(c(=O)oc12)CCCC3`, the pIC50 was 4.69.
In the case of `Cc1ccc(C)c(NC(=S)N(C)CCc2ccccn2)c1`, the IC50 is > 50 µM (inactive).
As to `COC(=O)Cn1c(=O)c2c(nc3n2CCCN3CCc2ccccc2)n(C)c1=O`, the IC50 is > 50 µM (inactive).
With `COC(=O)c1ccc2c(=O)n(CCN3CCOCC3)c(SCC(=O)C(C)(C)C)nc2c1`, the IC50 is > 50 µM (inactive).
With `COc1cc(NC(=O)c2cc(-c3cccs3)on2)cc(OC)c1OC`, the IC50 is > 50 µM (inactive).
On to `N#Cc1cc2cc3c(cc2nc1N1CCOCC1)OCO3`, for which the pIC50 is 4.91.
For `CCC(c1nnnn1C1CCCC1)N1CCC(C(N)=O)CC1` (stereo not given), the IC50 was > 50 µM (inactive).
Regarding `CSc1nsc(/C=C/Nc2ccc(C)cc2)c1C#N`, the IC50 is > 50 µM (inactive).
On to `COc1ccc(N2C(=O)N3[C@H](c4ccc(Br)cc4)[C@@H]4C(=O)N(C(C)(C)C)C(=O)[C@@H]4[C@]3(Cc3ccccc3)C2=O)cc1`, for which the IC50 is > 50 µM (inactive).
`Cn1c(=O)cc(N2CCCCC2)[nH]c1=O`: the IC50 is > 50 µM (inactive).
`Cc1ccc2cc(C#N)c(NCCNC(=O)C3CCC3)nc2c1C`: the IC50 was > 50 µM (inactive).
As to `CCN1C(=O)/C(=C2/Sc3ccccc3N2CCCS(=O)(=O)O)SC1=S`, the pIC50 was 4.82.
For `COc1ccccc1S(=O)Cc1ccc(C(=O)O)o1` (stereo not given), the IC50 is > 50 µM (inactive).
Turning to `COc1ccc(CNCc2c(O)c(Cl)cc3c(C)c(C)c(=O)oc23)c(OC)c1`, the pIC50 was 5.22.
Turning to `C=CCN1C=CC(=CC=C(C#N)C#N)C=C1`, the pIC50 is 4.54.
Still for that read-out and setting: for `Cc1c(CCC(=O)NCCCN2CCCC2=O)c(=O)oc2c(C)c(O)ccc12` the value was 4.81.
For `Cc1ccc(OCC(=O)c2cc(C)n(CC(F)(F)F)c2C)c([N+](=O)[O-])n1`, the IC50 was > 50 µM (inactive).
On the same count and under the same terms, for `CCCC(C)c1nnc(NC(=O)C2CC(=O)N(c3ccc(OCC)cc3)C2)s1` (stereo not given) the value was > 50 µM (inactive).
Regarding `COc1ccc(C(=O)NCCNc2nc3c(C)cccc3cc2C#N)cc1`, the pIC50 is 4.61.
Take `COc1ccc(OC)c(S(=O)(=O)n2ccnc2C)c1`: the IC50 is > 50 µM (inactive).
As for `COC(=O)c1n[nH]c2ccccc12`, the pIC50 is 4.32.
In the case of `COc1ccc(C2NCCc3c2[nH]c2ccccc32)cc1COc1ccc(F)cc1` (stereo not given), the IC50 is > 50 µM (inactive).
On the same count and under the same terms, under `Nc1ccccc1C(=O)NNc1c2ccccc2nc2ccccc12` stands > 50 µM (inactive); under `Cc1cccc(OCC(=O)NNc2c3ccccc3nc3ccccc23)c1`, > 50 µM (inactive).
On to `Cc1ccc(S(=O)(=O)CC(=O)N(CCCN(C)C)c2nc3ccc(C)cc3s2)cc1`, for which the IC50 is > 50 µM (inactive).
On to `COC(=O)Cc1c(C)c2ccc(O)c(CNCc3ccc(OC)c(OC)c3)c2oc1=O`, for which the pIC50 is 5.21.
Take `CC(C)Cc1ccc(CN2CCC(n3nccc3NC(=O)C3CCCC3)CC2)cc1`: the IC50 is > 50 µM (inactive).
Still for that read-out and setting: under `O=C(CN1CCN(C/C=C/c2ccccc2)CC1)NC(=O)NC1CCCCC1` stands > 50 µM (inactive).
Take `CCN(CC)C(=O)Oc1ccc2c(c1)O/C(=C\c1ccco1)C2=O`: the pIC50 is 5.10.
Turning to `Cc1cccc(N2C(=O)/C(=C/c3cccnc3)SC2=S)c1`, the IC50 is > 50 µM (inactive).
In the case of `CN1CC2=CC(O)CC3Oc4c(O)ccc(c4[C@]23C)C1` (stereo not given in full), the IC50 was > 50 µM (inactive).
In the case of `O=C(CN1CC(=O)Oc2ccccc21)NCc1ccco1`, the IC50 was > 50 µM (inactive).
`Cc1nn(C(=O)c2ccco2)c(C)c1CN1C(=O)c2ccccc2C1=O`: the IC50 was > 50 µM (inactive).
`C=CCn1c(O)c(C(C)=NCCc2ccccc2)c(=O)[nH]c1=O`: the IC50 was > 50 µM (inactive).
As to `COCCNC(=O)/C(C#N)=C/c1cn(CC(=O)NCc2ccco2)c2ccccc12`, the pIC50 is 4.39.
Turning to `COc1cc2cc(C(N)=O)c(N)nc2cc1OC`, the negative-log IC50 (pIC50) was 4.99.
As to `COc1ccc(-c2cc(C(=O)O)nc3ccc4ccccc4c23)cc1OC`, the IC50 was > 50 µM (inactive).
As to `COc1cc2c(cc1OC)CN(Cc1cc(=O)oc3c(C)c(C)ccc13)CC2`, the IC50 was > 50 µM (inactive).
In the case of `CCOC(=O)C1CCN(C(=O)COC(=O)c2ccc3[nH]c4c(c3c2)CCCC4)CC1`, the IC50 was > 50 µM (inactive).
`Nc1nc(CSc2nc3ccccc3s2)nc(N2CCCCC2)n1`: the IC50 is > 50 µM (inactive).
Turning to `Cc1ccc(-c2nnn(CC(=O)N(c3ccccc3)C(C(=O)NCC3CCCO3)c3ccc(Cl)cc3)n2)cc1` (stereo not given), the IC50 is > 50 µM (inactive).
In the case of `CC(=O)[C@@H]1[C@@H](C)N(Cc2ccccc2)C(=O)N[C@H]1c1cccc(C(F)(F)F)c1`, the IC50 is > 50 µM (inactive).
In the case of `Cn1c(=O)[nH]c2c(nc(-c3ccc(Cl)cc3)n2C)c1=O`, the negative-log IC50 (pIC50) is 4.58.
Regarding `Oc1cccc(/C=N/Nc2cc(N3CCCC3)nc(N3CCCC3)n2)c1`, the IC50 was > 50 µM (inactive).
Take `CCCOc1ccc(Cn2ccnc2)cc1[N+](=O)[O-]`: the IC50 was > 50 µM (inactive).
Regarding `O=C(c1ccccc1)c1cc2ccc(O)cc2oc1=O`, the negative-log IC50 (pIC50) is 4.89.
In the case of `COc1ccc(-c2c(C)c3ccc(O)cc3oc2=O)cc1OC`, the pIC50 was 4.43.
Turning to `O=C(O)c1ccccc1C(=O)Nc1ccc(Br)c2cccnc12`, the IC50 is > 50 µM (inactive).
Turning to `COC(=O)C1=CN(c2ccc(OC)cc2)C=C(C(=O)OC)C1c1cccc(F)c1`, the pIC50 is 4.45.
Take `CC(C)Sc1nc(N2CCOCC2)c2c(c1C#N)CC(C)(C)N(C)C2`: the pIC50 was 4.34.
As for `CC1C=CCC2C(=O)N(c3ccccc3OC(=O)c3cccs3)C(=O)C12` (stereo not given), the IC50 is > 50 µM (inactive).
Take `NS(=O)(=O)c1ccc(CCNC(=O)C(=O)c2c[nH]c3ccccc23)cc1`: the IC50 was > 50 µM (inactive).
For the compound `O=C(Oc1c(CN2CCOCC2)cc(Cl)c2cccnc12)c1ccccc1`, the IC50 is > 50 µM (inactive).
